Compound in this test: OCc1c[nH]c2ccccc12 [Indole-3-carbinol] + Cc1nc(NC(=O)N2CCC[C@H]2C(N)=O)sc1-c1ccnc(C(C)(C)C(F)(F)F)c1 [Alpelisib] (partner 2 µM)
Nature of the test: relative viability (nuclei count vs DMSO), 5 days (fraction); higher = more cells survive. The method, boiled down:
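Relative viability is defined as nuclei in treated wells over nuclei in vehicle wells. Duplicate plates were run and medians reported. Lung cancer cell lines in 1536-well plates were dosed by pin tool one day after seeding, with one drug or with a fixed anchor-drug dose plus five library-drug doses (not always all listed) in √10 steps, and nuclei were counted after 5 days.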

Consider EKVX, for which the relative viability came out at 0.763 (first compound 0.253 µM), 0.973 (first compound 0.8 µM), 0.9 (first compound 2.53 µM) and 0.852 (first compound 8 µM).

On to HARA, for which the relative viability by setting is: (first compound 0.253 µM) 0.759; (first compound 0.8 µM) 0.808; (first compound 2.53 µM) 0.93; (first compound 8 µM) 0.773.

As for EMC-BAC-2, the relative viability is 0.715 (first compound 0.253 µM), 0.731 (first compound 0.8 µM), 0.741 (first compound 2.53 µM) and 0.665 (first compound 8 µM).

On to PC-14, for which the relative viability by setting is: (first compound 0.253 µM) 0.995; (first compound 0.8 µM) 0.955; (first compound 2.53 µM) 0.888; (first compound 8 µM) 0.93.

For the cell line NCI-H520, the relative viability was determined as 0.911 (first compound 0.253 µM), 1.07 (first compound 0.8 µM), 1.04 (first compound 2.53 µM) and 0.849 (first compound 8 µM).

Regarding NCI-H1755, the relative viability reads like this: (first compound 0.253 µM) 0.97; (first compound 0.8 µM) 0.935; (first compound 2.53 µM) 0.907; (first compound 8 µM) 0.886.

Consider NCI-H2087, for which the relative viability by setting is: (first compound 0.253 µM) 0.807; (first compound 0.8 µM) 1.15; (first compound 2.53 µM) 1.01; (first compound 8 µM) 0.942.

Regarding NCI-H2023, the relative viability (first compound 0.253 µM) is 0.587, the relative viability (first compound 0.8 µM) was determined as 0.587, the relative viability (first compound 2.53 µM) is 0.592 and the relative viability (first compound 8 µM) was determined as 0.626.

With CAL-12T, the relative viability is, setting by setting: (first compound 0.253 µM) 1.04; (first compound 0.8 µM) 1.61; (first compound 2.53 µM) 1.47; (first compound 8 µM) 1.17.

Regarding NCI-H2085, the relative viability runs as follows: (first compound 0.253 µM) 0.905; (first compound 0.8 µM) 1.06; (first compound 2.53 µM) 1.05; (first compound 8 µM) 0.854.

On to NCI-H650, for which the relative viability came to 1.06 (first compound 0.253 µM), 1.18 (first compound 0.8 µM), 1.05 (first compound 2.53 µM) and 0.953 (first compound 8 µM).

As to LCLC-97TM1, the relative viability (first compound 0.253 µM) is 0.203, the relative viability (first compound 0.8 µM) worked out at 0.277, the relative viability (first compound 2.53 µM) came to 0.242 and the relative viability (first compound 8 µM) worked out at 0.227.

NCI-H2126: the relative viability is 0.751 (first compound 0.253 µM), 0.808 (first compound 0.8 µM), 0.714 (first compound 2.53 µM) and 0.764 (first compound 8 µM).

For the cell line 201T, the relative viability by setting is: (first compound 0.253 µM) 0.954; (first compound 0.8 µM) 1.04; (first compound 2.53 µM) 1.06; (first compound 8 µM) 1.06.

With NCI-H1915, the relative viability by setting is: (first compound 0.253 µM) 1.05; (first compound 0.8 µM) 1.05; (first compound 2.53 µM) 1.07; (first compound 8 µM) 1.03.

On to BEN, for which the relative viability amounted to 0.948 (first compound 0.253 µM), 0.808 (first compound 0.8 µM), 1.02 (first compound 2.53 µM) and 0.929 (first compound 8 µM).

Take NCI-H2347: the relative viability is, setting by setting: (first compound 0.253 µM) 1.06; (first compound 0.8 µM) 1.08; (first compound 2.53 µM) 1.14; (first compound 8 µM) 0.868.

H3255: the relative viability runs as follows: (first compound 0.253 µM) 0.671; (first compound 0.8 µM) 0.741; (first compound 2.53 µM) 0.675; (first compound 8 µM) 0.643.

NCI-H441: the relative viability reads like this: (first compound 0.253 µM) 0.796; (first compound 0.8 µM) 0.831; (first compound 2.53 µM) 0.794; (first compound 8 µM) 0.736.

As to NCI-H2228, the relative viability reads like this: (first compound 0.253 µM) 0.697; (first compound 0.8 µM) 0.902; (first compound 2.53 µM) 0.779; (first compound 8 µM) 0.629.

Take NCI-H1975: the relative viability amounted to 0.635 (first compound 0.253 µM), 0.734 (first compound 0.8 µM), 0.736 (first compound 2.53 µM) and 0.583 (first compound 8 µM).

On to NCI-H647, for which the relative viability worked out at 1.22 (first compound 0.253 µM), 1.15 (first compound 0.8 µM), 1.24 (first compound 2.53 µM) and 1.09 (first compound 8 µM).

Regarding A-427, the relative viability is, setting by setting: (first compound 0.253 µM) 1.01; (first compound 0.8 µM) 1.14; (first compound 2.53 µM) 1.05; (first compound 8 µM) 0.953.

For LXF-289, the relative viability by setting is: (first compound 0.253 µM) 1.03; (first compound 0.8 µM) 1.1; (first compound 2.53 µM) 1.09; (first compound 8 µM) 0.99.

Turning to NCI-H727, the relative viability (first compound 0.253 µM) was 0.583, the relative viability (first compound 0.8 µM) was found to be 0.562, the relative viability (first compound 2.53 µM) amounted to 0.535 and the relative viability (first compound 8 µM) worked out at 0.603.

In the case of NCI-H1437, the relative viability (first compound 0.253 µM) amounted to 0.928, the relative viability (first compound 0.8 µM) came to 1.04, the relative viability (first compound 2.53 µM) amounted to 0.937 and the relative viability (first compound 8 µM) amounted to 0.811.

Take RERF-LC-KJ: the relative viability runs as follows: (first compound 0.253 µM) 0.841; (first compound 0.8 µM) 0.783; (first compound 2.53 µM) 0.814; (first compound 8 µM) 0.83.

As to NCI-H1792, the relative viability is 0.713 (first compound 0.253 µM), 0.68 (first compound 0.8 µM), 0.77 (first compound 2.53 µM) and 0.673 (first compound 8 µM).

As to HCC-44, the relative viability reads like this: (first compound 0.253 µM) 0.788; (first compound 0.8 µM) 0.845; (first compound 2.53 µM) 0.851; (first compound 8 µM) 0.773.

For the cell line EPLC-272H, the relative viability was found to be 1.13 (first compound 0.253 µM), 0.94 (first compound 0.8 µM), 0.931 (first compound 2.53 µM) and 0.803 (first compound 8 µM).

For IA-LM, the relative viability runs as follows: (first compound 0.253 µM) 0.672; (first compound 0.8 µM) 0.866; (first compound 2.53 µM) 0.77; (first compound 8 µM) 0.713.

NCI-H358: the relative viability reads like this: (first compound 0.253 µM) 0.773; (first compound 0.8 µM) 0.777; (first compound 2.53 µM) 0.992; (first compound 8 µM) 0.959.

As to NCI-H596, the relative viability by setting is: (first compound 0.253 µM) 0.387; (first compound 0.8 µM) 0.48; (first compound 2.53 µM) 0.417; (first compound 8 µM) 0.47.

Take NCI-H322M: the relative viability amounted to 0.774 (first compound 0.253 µM), 0.82 (first compound 0.8 µM), 0.86 (first compound 2.53 µM) and 0.8 (first compound 8 µM).

As for NCI-H1563, the relative viability runs as follows: (first compound 0.253 µM) 0.905; (first compound 0.8 µM) 0.997; (first compound 2.53 µM) 0.921; (first compound 8 µM) 0.885.
